According to patent publication US20250368628A1, “METHODS AND COMPOUNDS FOR MODULATING INHERITED GENETIC DISEASES” (Design Therapeutics, Inc., priority 2022, published 2025):
Where two headings read alike, the source gives them in different places.

Legend:
[1] = test system: Myotonic Dystrophy 1 affected patient fibroblasts (Coriel GM04602; 1600 CTG repeats); assay: DM1 foci reduction assay (EC50 assay; CAG10-Cy3 FISH, foci per nucleus); format: cell-based
Summary of the method: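 Foci per nucleus counted by 20× imaging of 4 areas per well, after overnight FISH with 5 nM CAG10-Cy3 and DAPI staining of fixed, permeabilized cells. DM1 fibroblasts (GM04602, 1600 CTG) were dosed 48 h at 37 °C, 8 points, 3-fold dilutions, 3 μM top concentration.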

F35T cells = assay: Foci reduction in FECD (CAG10-Cy3 FISH, foci per nucleus); format: cell-based
Summary of the method: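 Foci per nucleus were counted by imaging after overnight CAG10-Cy3 FISH at 37 °C (30% formamide, 2×SSC) with DAPI counterstain, on PFA-fixed, ethanol-permeabilized F35T cells. The cells, seeded at 5000 per well in supplemented Opti-MEM, had received 8-point compound dilutions for 48 h at 37 °C.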

[2] = Homo sapiens, Fibroblast; DM1 patient fibroblasts, foci per nucleus, 48 h treatment; read-out: DM1 EC50, 48 h
[3] = F35T cells, foci per nucleus, 48 h treatment; read-out: FECD EC50, 48 h

SMILES | EC50 ([1]; Homo sapiens, Fibroblast; DM1 patient fibroblasts, 48 h treatment, foci per nucleus; read-out: DM1 EC50, 48 h) [nM] | EC50 (F35T cells; F35T cells, 48 h treatment, foci per nucleus; read-out: FECD EC50, 48 h) [nM] | EC50 [1, 2] [nM] | EC50 (F35T cells; [3]) [nM]
CCCNC(=O)c1nc(NC(=O)c2cc(NC(=O)CCNC(=O)c3nc(NC(=O)[C@H](N)CCNC(=O)c4cc(NC(=O)c5nc(NC(=O)CCNC(=O)c6cc(NC(=O)c7nccn7C)cn6C)cn5C)cn4C)cn3C)cn2C)cn1C [Compound B-409] | < 100 | < 100 | – | –
CN(C)CCCCNC(=O)c1nc(NC(=O)c2cc(NC(=O)CCNC(=O)c3nc(NC(=O)[C@H](N)CCNC(=O)c4cc(NC(=O)c5nc(NC(=O)CCNC(=O)c6cc(NC(=O)c7nccn7C)cn6C)cn5C)cn4C)cn3C)cn2C)cn1C [Compound B-410] | – | – | 500 to 1000 | > 1000
COCCOCCOCCOCCOCCOCCOc1ccc(C#CCNCCCNC(=O)c2nc(NC(=O)c3cc(NC(=O)CCNC(=O)c4nc(NC(=O)CCCNC(=O)c5cc(NC(=O)c6nc(NC(=O)CCNC(=O)c7cc(NC(=O)c8nccn8C)cn7C)cn6C)cn5C)cn4C)cn3C)cn2C)cc1 [Compound B-412] | – | – | > 1000 | < 100
COCCOCCOCCOCCOCCOCCOc1ccccc1C#CCNCCCNC(=O)c1nc(NC(=O)c2cc(NC(=O)CCNC(=O)c3nc(NC(=O)CCCNC(=O)c4cc(NC(=O)c5nc(NC(=O)CCNC(=O)c6cc(NC(=O)c7nccn7C)cn6C)cn5C)cn4C)cn3C)cn2C)cn1C [Compound B-414] | – | – | 100 to 500 | < 100
CCCNC(=O)CCNC(=O)c1nc(NC(=O)c2cc(NC(=O)CCNC(=O)c3nc(NC(=O)C[C@@H](N)CNC(=O)c4cc(NC(=O)c5nc(NC(=O)CCNC(=O)c6cc(NC(=O)c7nccn7C)cn6C)cn5C)cn4C)cn3C)cn2C)cn1C [Compound B-415] | – | – | 100 to 500 | 100 to 500
CN1CCN(C(=O)CCNC(=O)c2nc(NC(=O)c3cc(NC(=O)CCNC(=O)c4nc(NC(=O)C[C@@H](N)CNC(=O)c5cc(NC(=O)c6nc(NC(=O)CCNC(=O)c7cc(NC(=O)c8nccn8C)cn7C)cn6C)cn5C)cn4C)cn3C)cn2C)CC1 [Compound B-416] | – | – | 500 to 1000 | > 1000
CN1CCN(C(=O)CCNC(=O)c2nc(NC(=O)c3cc(NC(=O)CCNC(=O)c4nc(NC(=O)C[C@H](CNC(=O)c5cc(NC(=O)c6nc(NC(=O)CCNC(=O)c7cc(NC(=O)c8nccn8C)cn7C)cn6C)cn5C)NC(=O)c5ccccc5)cn4C)cn3C)cn2C)CC1 [Compound B-417] | – | – | 100 to 500 | < 100
Cn1cc(NC(=O)c2nccn2C)cc1C(=O)NCCC(=O)Nc1cn(C)c(C(=O)Nc2cc(C(=O)NC[C@H](N)CC(=O)Nc3cn(C)c(C(=O)NCCC(=O)Nc4cc(C(=O)Nc5cn(C)c(C(=O)NCCC(=O)N6CCCCC6)n5)n(C)c4)n3)n(C)c2)n1 [Compound B-418] | – | – | 100 to 500 | < 100
Cn1cc(NC(=O)c2nccn2C)cc1C(=O)NCCC(=O)Nc1cn(C)c(C(=O)Nc2cc(C(=O)NC[C@H](N)CC(=O)Nc3cn(C)c(C(=O)NCCC(=O)Nc4cc(C(=O)Nc5cn(C)c(C(=O)NCCC(=O)N6CCC(C#CC#CC7CCNCC7)CC6)n5)n(C)c4)n3)n(C)c2)n1 [Compound B-419] | – | – | 100 to 500 | < 100
CCCCn1cc(NC(=O)c2nc(NC(=O)CCNC(=O)c3cc(NC(=O)c4nccn4C)cn3C)cn2C)cc1C(=O)NC[C@H](N)CC(=O)Nc1cn(C)c(C(=O)NCCC(=O)Nc2cc(C(=O)Nc3cn(C)c(C(=O)NCCC(=O)N4CCN(C)CC4)n3)n(C)c2)n1 [Compound B-420] | – | – | 100 to 500 | 500 to 1000
CCCNC(=O)c1nc(NC(=O)c2cc(NC(=O)CCNC(=O)c3nc(NC(=O)C[C@@H](N)CNC(=O)c4cc(NC(=O)c5nc(NC(=O)CCNC(=O)c6cc(NC(=O)c7nccn7C)cn6C)cn5C)cn4C)cn3C)cn2C)cn1C [Compound B-421] | – | – | < 100 | < 100
CN(C)CCCCNC(=O)c1nc(NC(=O)c2cc(NC(=O)CCNC(=O)c3nc(NC(=O)C[C@@H](N)CNC(=O)c4cc(NC(=O)c5nc(NC(=O)CCNC(=O)c6cc(NC(=O)c7nccn7C)cn6C)cn5C)cn4C)cn3C)cn2C)cn1C [Compound B-422] | – | – | > 1000 | > 1000
